# Results taken from ChEMBL document CHEMBL5053539, “THC shows activity against cultured Plasmodium falciparum” (Bioorg Med Chem Lett, 2021).
# Tests used:
# Plasmodium falciparum [1] = assay: Antiplasmodial activity against chloroquine-sensitive Plasmodium falciparum NF54; type: functional, organism-based
# Hemozoin = assay: Inhibition of Beta-hematin in Plasmodium falciparum cells assessed as hemozoin formation after 32 hrs by NP40 detergent-mediated assay
# Plasmodium falciparum [2] = assay: Antiplasmodial activity against multidrug-resistant Plasmodium falciparum K1; type: functional, organism-based
SMILES,IC50 (Plasmodium falciparum [1]) [µM],IC50 (Hemozoin) [µM],IC50 (Plasmodium falciparum [2]) [µM]
C=C(C)[C@@H]1CCC(C)=C[C@H]1c1c(O)cc(CCCCC)cc1O [CANNABIDIOL],4.1,51.1,
CCN(CC)CCCC(C)Nc1ccnc2cc(Cl)ccc12 (stereo unspecified) [CHLOROQUINE],,16.8,
CCCCCc1cc(O)c2c(c1)OC(C)(C)[C@@H]1CCC(C)=C[C@@H]21 [DRONABINOL],0.79,11.3,0.72
